Source: patent publication US10575485B2, “Wheat plants having increased resistance to imidazolinone herbicides” (The Department of Agriculture, Western Australia, priority 2002, dated 2020)

Legend:
[1] = tested on: Triticum aestivum wheat lines K-42 and Br-8; assay: Seed soak and spray selection of mutagenised wheat lines for imazamox tolerance; format: in vivo; conditions: M3 seed soaked in 50 ppm solution for 24 hours, subsequent plants sprayed with 50 ppm
Description: 840 grams of seed of the Triticum aestivuni wheat varieties Krichauff and Brookton were soaked in a sodium azide solution (0.065 g/L) to produce M1 seed. M1 plants were allowed to self pollinate to produce M2 seed. M2 seed were soaked in a 50 ppm solution of the imidazolinone herbicide imazamox for 24 hours prior to sowing in the field. Resultant plants that appeared to have normal growth eight to nine weeks after sowing were transplanted from the field to a greenhouse for M3 seed production. To confirm herbicide tolerance, M3 seed were soaked in a 50 ppm solution of imazamox for 24 hours prior to sowing, and subsequent plants were sprayed with a solution of 50 ppm of imazamox.

[2] = tested on: wheat plants (K-42, Br-8, K-42/Br-8, wild type Krichauff and Brookton); assay: Greenhouse herbicide tolerance, injury scored on a 0-9 scale; format: in vivo, Triticum aestivum; conditions: 40 and 120 g/ha
Description: Tolerance of K-42 and Br-8 to the imidazolinone herbicide imazamox was evaluated at 40 and 120 g/ha in the greenhouse. Wild type Krichauff and Brookton were used as herbicide susceptible controls. 24 plants were treated at each rate at the 2-3 leaf stage. Injury was scored on a 0-9 scale, 0 representing no injury and 9 representing plant death. FIG. 4 summarizes the data collected 14 and 21 days after treatment. In Example 1, reference was made to crosses between K-42, containing a mutation in Als3 conferring imidazolinone herbicide tolerance, and FS-2 and Br-8, each containing a mutation in Als1 also conferring imidazolinone herbicide tolerance. Krichauff and Brookton are the wheat varieties from which K-42 and Br-8, respectively, were derived. Lines derived from the K-42/FS-2 cross were tolerant to rates of up to six times that required for economic weed control in the field. One line derived from the K-42/Br-8 cross was evaluated in the greenhouse for tolerance to 40 and 120 grams/hectare of irnazamox. Injury was scored on a 0-9 scale, 0 representing no injury and 9 representing plant death.

[3] = tested on: AHAS extracted from wild type and tolerant wheat plants; assay: In vitro AHAS enzyme activity in the presence of imidazolinone herbicide; format: biochemical, Triticum aestivum
Source text: Because the tolerance in K-42 and Br-8 is due to a mutation in the AHAS enzyme rendering it resistant to inhibition by imidazolinone herbicides, the in vitro activity of AHAS extracted from wild type plants (not having the mutation for tolerance) can be compared to the in vitro activity of AHAS extracted from tolerant plants in the presence of varying concentrations of an imidazolinone herbicide. K-42 was compared to the wild type variety Krichauff, and Br-8 was compared to the wild type variety Brookton. […] As explained in Example 2, the in vitro AHAS enzyme activity can be compared among lines with and without a mutation conferring resistance to inhibition by imidazolinone herbicides. […]

| Structure (SMILES) | Herbicide tolerance of M2-derived lines K-42 and Br-8 [1] | Resistance and injury of K-42 and BR-8 relative to wild type counterparts (FIG. 4) ([2]; 2-3 leaf stage, 14 and 21 days after treatment) | Tolerance and injury of the line derived from the K-42/Br-8 cross (FIG. 6) ([2]; injury 0-9 scale) | Residual uninhibited AHAS in Br-8 and K-42 ([3]; 100 μM imazamox) | Uninhibited AHAS enzyme activity with increasing herbicide concentration (FIG. 5) ([3]; wild type Krichauff and Brookton versus K-42 and Br-8) | Percent uninhibited AHAS activity in the Br-8/K-42 combination (FIG. 7) ([3]; four highest herbicide concentrations, compared with Br-8, K-42 and wild type) |
| --- | --- | --- | --- | --- | --- | --- |
| COCc1cnc(C2=NC(C)(C(C)C)C(=O)N2)c(C(=O)O)c1 (stereo not drawn) [imazamox] | identified as tolerant to imazamox | increased resistance and decreased injury | greatly enhanced tolerance at both 40 and 120 g/ha with very little injury | sufficient to provide a herbicide tolerant response | decreased faster in wild type lines than in either Br-8 or K-42 | – |
| CCc1cnc(C2=NC(C)(C(C)C)C(=O)N2)c(C(=O)O)c1 (stereo not drawn) [imazethapyr] | – | – | – | – | – | increase in percent uninhibited AHAS activity |
